Measurements taken from PubChem BioAssay (NCI).
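At the GI50, growth is halved. At the TGI there is no net growth.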

What was measured:
Assay in all cases: NCI tumour cell line growth inhibition, 384-well format
[1] = system: 786-0 renal
[2] = system: A498 renal
[3] = system: A549 NSCLC
[4] = system: ACHN renal
[5] = system: BT-549 breast
[6] = system: CAKI-1 renal
[7] = system: COLO 205 colon
[8] = system: DU-145 prostate
[9] = system: EKVX NSCLC
[10] = system: HCT-116 colon
[11] = system: HCT-15 colon
[12] = system: HL-60(TB) leukemia
[13] = system: HOP-62 NSCLC
[14] = system: HOP-92 NSCLC
[15] = system: HS 578T breast
[16] = system: HT29 colon
[17] = system: IGROV1 ovarian
[18] = system: K-562 leukemia
[19] = system: KM12 colon
[20] = system: M14 melanoma
[21] = system: MALME-3M melanoma
[22] = system: MCF7 breast
[23] = system: MDA-MB-231 breast
[24] = system: MDA-MB-435 melanoma
[25] = system: MDA-MB-468 breast
[26] = system: NCI-H226 lung
[27] = system: NCI-H23 lung
[28] = system: NCI-H322M lung
[29] = system: NCI-H460 NSCLC
[30] = system: NCI-H522 lung
[31] = system: OVCAR-3 ovarian
[32] = system: OVCAR-5 ovarian
[33] = system: OVCAR-8 ovarian
[34] = system: PC-3 prostate
[35] = system: RXF 393 renal
[36] = system: SF-268 CNS
[37] = system: SF-295 CNS
[38] = system: SF-539 CNS
[39] = system: SK-MEL-2 melanoma
[40] = system: SK-MEL-28 melanoma
[41] = system: SK-MEL-5 melanoma
[42] = system: SK-OV-3 ovarian
[43] = system: SN12C renal
[44] = system: SNB-19 CNS
[45] = system: SNB-75 CNS
[46] = system: SR leukemia
[47] = system: SW-620 colon
[48] = system: T-47D breast
[49] = system: TK-10 renal
[50] = system: U251 glioblastoma
[51] = system: UACC-257 melanoma
[52] = system: UACC-62 melanoma
[53] = system: UO-31 renal

Cc1ncnc2c1ccn2[C@@H]1C[C@H](Oc2cc(C(F)F)c(F)c3c2CNCC3)[C@@H](O)[C@H]1O
GI50 [1]: 23.6 µM
TGI [1]: > 100 µM
GI50 [2]: 19.3 µM
TGI [2]: > 100 µM
GI50 [3]: 57.8 µM
TGI [3]: > 100 µM
GI50 [4]: 39.6 µM
TGI [4]: > 100 µM
GI50 [5]: 24.7 µM
TGI [5]: > 100 µM
GI50 [6]: 19.1 µM
TGI [6]: > 100 µM
GI50 [7]: 46.5 µM
TGI [7]: > 100 µM
GI50 [8]: 82.9 µM
TGI [8]: > 100 µM
GI50 [9]: 12.8 µM
TGI [9]: 96 µM
GI50 [10]: 15 µM
TGI [10]: 63.3 µM
GI50 [11]: 30.5 µM
TGI [11]: > 100 µM
GI50 [12]: 17 µM
TGI [12]: 30.8 µM
GI50 [13]: 28.2 µM
TGI [13]: > 100 µM
GI50 [14]: 28.1 µM
TGI [14]: > 100 µM
GI50 [15]: 19.3 µM
TGI [15]: > 100 µM
GI50 [16]: 14 µM
TGI [16]: > 100 µM
GI50 [17]: 57.1 µM
TGI [17]: > 100 µM
GI50 [18]: 11.1 µM
TGI [18]: 23.8 µM
GI50 [19]: 0.0943 µM
TGI [19]: > 100 µM
GI50 [20]: 18.4 µM
TGI [20]: 38.4 µM
GI50 [21]: 15.5 µM
TGI [21]: 31.3 µM
GI50 [22]: 6.49 µM
TGI [22]: > 100 µM
GI50 [23]: 39.2 µM
TGI [23]: > 100 µM
GI50 [24]: 38.4 µM
TGI [24]: > 100 µM
GI50 [25]: 6.74 µM
TGI [25]: 35.2 µM
GI50 [26]: 25.7 µM
TGI [26]: > 100 µM
GI50 [27]: 12.9 µM
TGI [27]: 52.1 µM
GI50 [28]: 24.2 µM
TGI [28]: > 100 µM
GI50 [29]: 0.221 µM
TGI [29]: > 100 µM
GI50 [30]: 33 µM
TGI [30]: > 100 µM
GI50 [31]: 17.7 µM
TGI [31]: > 100 µM
GI50 [32]: > 100 µM
TGI [32]: > 100 µM
GI50 [33]: 87.5 µM
TGI [33]: > 100 µM
GI50 [34]: 19.8 µM
TGI [34]: > 100 µM
GI50 [35]: 3.75 µM
TGI [35]: 24.9 µM
GI50 [36]: 29 µM
TGI [36]: > 100 µM
GI50 [37]: 18.9 µM
TGI [37]: 59.8 µM
GI50 [38]: 36.2 µM
TGI [38]: > 100 µM
GI50 [39]: 22.1 µM
TGI [39]: 50.1 µM
GI50 [40]: 17.2 µM
TGI [40]: 42.3 µM
GI50 [41]: 5.57 µM
TGI [41]: 20.6 µM
GI50 [42]: 41.9 µM
TGI [42]: > 100 µM
GI50 [43]: 49.9 µM
TGI [43]: > 100 µM
GI50 [44]: > 100 µM
TGI [44]: > 100 µM
GI50 [45]: 20.8 µM
TGI [45]: 88.6 µM
TGI [46]: 12.2 µM
GI50 [47]: 33.3 µM
TGI [47]: > 100 µM
GI50 [48]: 1.92 µM
TGI [48]: 37.6 µM
GI50 [49]: 25.5 µM
TGI [49]: > 100 µM
GI50 [50]: 31.6 µM
TGI [50]: > 100 µM
GI50 [51]: 13.5 µM
TGI [51]: 27.6 µM
GI50 [52]: 12.5 µM
TGI [52]: 53.3 µM
GI50 [53]: 26.4 µM
TGI [53]: > 100 µM
